Experimental data reported in patent US9938269B2, “Inhibitor compounds of phosphodiesterase type 10A” (ABBVIE INC., priority 2011, dated 2018).
Where a name gives a salt, the structure may show the parent alone.

Key:
[1] = target: T1, PDE10A (human) (Homo sapiens, UniProt Q9Y233); test: Measurement of PDE activity (HTRF cAMP kit), human PDE10A; format: biochemical; conditions: PDE enzymatic reaction, substrate 20 nM for PDE10, 60 minutes at 29 C
T1 construct: purchased BPS Bioscience
Outline: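 HTRF detection of cAMP left after hydrolysis, expressed as percent of uninhibited control to derive IC50. Reaction: serially diluted inhibitor mixed with recombinant enzyme, started with 20 nM cAMP, 60 min at 29 °C in Tris-HCl pH 7.5 buffer containing MgCl2 and BSA.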

[2] = Determination of the microsomal half-life, rat liver microsomes; conditions: rat, liver microsomes, pH 7.4
[3] = Determination of the microsomal half-life, human liver microsomes; conditions: human, liver microsomes, pH 7.4
Procedure: The test substances were incubated in a concentration of 0.5 μM as follows:
0.5 μM test substance are preincubated together with liver microsomes from different species (from rat, human or other species) (0.25 mg of microsomal protein/10 in 0.05 M potassium phosphate buffer of pH 7.4 in microtiter plates at 37° C. for 5 min. The reaction is started by adding NADPH (1 mg/mL). After 0, 5, 10, 15, 20 and 30 min., 50 μl aliquots are removed, and the reaction is immediately stopped and cooled with the same volume of acetonitrile. The samples are frozen until analyzed. The remaining concentration of undegraded test substance is determined by MSMS. The half-life (T½) is determined from the gradient of the signal of test substance/unit time plot, it being possible to calculate the half-life of the test substance, assuming first order kinetics, from the decrease in the concentration of the compound with time. The microsomal clearance (mCl) is calculated from mCl=ln 2/T½/(content of microsomal protein in mg/ml)×1000 [ml/min/mg]

T1 sequence (Q9Y233 whole entry): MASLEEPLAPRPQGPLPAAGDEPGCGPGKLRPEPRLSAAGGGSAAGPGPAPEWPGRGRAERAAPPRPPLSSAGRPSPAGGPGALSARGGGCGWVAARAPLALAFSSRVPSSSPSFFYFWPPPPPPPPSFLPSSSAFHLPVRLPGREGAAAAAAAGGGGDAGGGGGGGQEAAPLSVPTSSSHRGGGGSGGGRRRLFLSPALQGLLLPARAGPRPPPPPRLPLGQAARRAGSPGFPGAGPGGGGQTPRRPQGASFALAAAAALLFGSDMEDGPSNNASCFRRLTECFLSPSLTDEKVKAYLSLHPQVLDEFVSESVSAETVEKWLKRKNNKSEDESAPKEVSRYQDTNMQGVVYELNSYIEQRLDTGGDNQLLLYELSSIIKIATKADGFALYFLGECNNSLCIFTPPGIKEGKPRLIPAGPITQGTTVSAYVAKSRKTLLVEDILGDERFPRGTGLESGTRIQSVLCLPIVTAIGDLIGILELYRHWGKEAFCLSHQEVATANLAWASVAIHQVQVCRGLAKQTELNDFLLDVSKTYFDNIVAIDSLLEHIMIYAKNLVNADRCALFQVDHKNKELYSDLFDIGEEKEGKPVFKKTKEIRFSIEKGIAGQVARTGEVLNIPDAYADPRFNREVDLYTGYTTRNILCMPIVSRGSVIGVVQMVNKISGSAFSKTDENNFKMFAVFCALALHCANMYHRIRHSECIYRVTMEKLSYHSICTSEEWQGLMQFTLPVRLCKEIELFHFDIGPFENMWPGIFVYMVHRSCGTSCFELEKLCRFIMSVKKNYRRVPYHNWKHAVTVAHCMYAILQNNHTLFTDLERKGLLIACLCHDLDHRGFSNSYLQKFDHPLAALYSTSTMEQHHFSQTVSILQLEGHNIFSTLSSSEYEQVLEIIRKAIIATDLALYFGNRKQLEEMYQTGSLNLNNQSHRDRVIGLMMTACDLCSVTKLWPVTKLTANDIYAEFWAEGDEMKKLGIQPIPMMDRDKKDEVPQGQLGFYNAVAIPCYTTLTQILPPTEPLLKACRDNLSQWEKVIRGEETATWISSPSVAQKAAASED

| IC50 [1] | microsomal CLint at 0.5 μM [2] | microsomal CLint at 0.5 μM [3] | Structure (SMILES) |
| --- | --- | --- | --- |
| < 100 nM | < 100 µL/min/mg | < 100 µL/min/mg | O=C1c2c(N3CCOCC3)ccnc2CN1CCc1cn2cc(F)ccc2n1 [compound 493, 6-[2-(6-Fluoroimidazo[1,2-a]pyridin-2-yl)ethyl]-4-morpholino-7H-pyrrolo[3,4-b]pyridin-5-one trifluoroacetate] |
| < 100 nM | < 100 µL/min/mg | < 100 µL/min/mg | O=C1c2c(-c3ccncc3)ccnc2CN1CCc1cn2cc(F)ccc2n1 [compound 494, 6-[2-(6-Fluoroimidazo[1,2-a]pyridin-2-yl)ethyl]-4-(4-pyridyl)-7H-pyrrolo[3,4-b]pyridin-5-one trifluoroacetate] |
| < 100 nM | < 100 µL/min/mg | < 100 µL/min/mg | O=C1c2c(N3CCOCC3)ccnc2CN1CCc1cnc2ccccc2n1 [compound 495, 4-Morpholino-6-(2-quinoxalin-2-ylethyl)-7H-pyrrolo[3,4-b]pyridin-5-one trifluoroacetate] |
| < 100 nM | < 100 µL/min/mg | < 100 µL/min/mg | Cc1cccn2cc(CCN3Cc4nccc(-c5ccncc5)c4C3=O)nc12 [compound 496, 6-[2-(8-Methylimidazo[1,2-a]pyridin-2-yl)ethyl]-4-(4-pyridyl)-7H-pyrrolo[3,4-b]pyridin-5-one trifluoroacetate] |
| 100 to 200 nM | 100 to 220 µL/min/mg | < 100 µL/min/mg | CCc1ccc(CCN2Cc3nccc(-c4ccncc4)c3C2=O)nc1 [compound 501, 6-[2-(5-Ethyl-2-pyridyl)ethyl]-4-(4-pyridyl)-7H-pyrrolo[3,4-b]pyridin-5-one trifluoroacetate] |
| 100 to 200 nM | 100 to 220 µL/min/mg | 100 to 220 µL/min/mg | COc1cccc(CCN2Cc3nccc(-c4cccnc4)c3C2=O)n1 [compound 503, 6-[2-(6-Methoxy-2-pyridyl)ethyl]-4-(3-pyridyl)-7H-pyrrolo[3,4-b]pyridin-5-one trifluoroacetate] |
| 200 to 500 nM | < 100 µL/min/mg | < 100 µL/min/mg | O=C1c2c(N3CCOCC3)ccnc2CN1CCc1ccc(Cl)cn1 [compound 505, 6-[2-(5-Chloro-2-pyridyl)ethyl]-4-morpholino-7H-pyrrolo[3,4-b]pyridin-5-one] |
| 200 to 500 nM | > 220 µL/min/mg | 100 to 220 µL/min/mg | Cc1cnc(CCN2Cc3nccc(-c4ccncc4)c3C2=O)cc1C [compound 507, 6-[2-(4,5-Dimethyl-2-pyridyl)ethyl]-4-(4-pyridyl)-7H-pyrrolo[3,4-b]pyridin-5-one trifluoroacetate] |
| < 100 nM | > 220 µL/min/mg | 100 to 220 µL/min/mg | [2H]c1nc2c(c(N3C([2H])([2H])C([2H])([2H])OC([2H])([2H])C3([2H])[2H])c1[2H])C(=O)N(C([2H])([2H])Cc1nc3c([2H])c([2H])c([2H])c([2H])c3c([2H])c1[2H])C2([2H])[2H] [compound 510, 2,3,7,7-Tetradeuterio-6-[1,1-dideuterio-2-(3,4,5,6,7,8-hexadeuterio-2-quinolyl)ethyl]-4-(2,2,3,3,5,5,6,6-octadeuteriomorpholin-4-yl)pyrrolo[3,4-b]pyridin-5-one] |
| < 100 nM | < 100 µL/min/mg | < 100 µL/min/mg | O=C1c2c(-c3ccncc3)ccnc2CN1CCc1ccc2ncccc2n1 [compound 512, 6-[2-(1,5-Naphthyridin-2-yl)ethyl]-4-(4-pyridyl)-7H-pyrrolo[3,4-b]pyridin-5-one] |
| < 100 nM | > 220 µL/min/mg | 100 to 220 µL/min/mg | [2H]c1nc2c(c(N3CCOCC3)c1[2H])C(=O)N(CC([2H])([2H])c1nc3c([2H])c([2H])c([2H])c([2H])c3c([2H])c1[2H])C2([2H])[2H] [compound 513, 2,3,7,7-Tetradeuterio-6-[2,2-dideuterio-2-(3,4,5,6,7,8-hexadeuterio-2-quinolyl)ethyl]-4-morpholino-pyrrolo[3,4-b]pyridin-5-one] |
| < 100 nM | < 100 µL/min/mg | < 100 µL/min/mg | O=C1c2c(N3CCOCC3)ccnc2CN1CCc1ccc2ncccc2n1 [compound 514, 4-Morpholino-6-[2-(1,5-naphthyridin-2-yl)ethyl]-7H-pyrrolo[3,4-b]pyridin-5-one] |
| < 100 nM | 100 to 220 µL/min/mg | < 100 µL/min/mg | CCc1csc(CCN2Cc3nccc(N4CCOCC4)c3C2=O)n1 [compound 516, 6-[2-(4-Ethylthiazol-2-yl)ethyl]-4-morpholino-7H-pyrrolo[3,4-b]pyridin-5-one] |
| < 100 nM | 100 to 220 µL/min/mg | < 100 µL/min/mg | O=C1c2c(N3CCOCC3)ccnc2CN1CCc1nc(C2CC2)cs1 [compound 518, 6-[2-(4-Cyclopropylthiazol-2-yl)ethyl]-4-morpholino-7H-pyrrolo[3,4-b]pyridin-5-one] |
| < 100 nM | > 220 µL/min/mg | < 100 µL/min/mg | Cc1nc(CCN2Cc3nccc(N4CCOCC4)c3C2=O)sc1C [compound 519, 6-[2-(4,5-Dimethylthiazol-2-yl)ethyl]-4-morpholino-7H-pyrrolo[3,4-b]pyridin-5-one] |
| 100 to 200 nM | 100 to 220 µL/min/mg | < 100 µL/min/mg | Cc1cnc(CCN2Cc3nccc(N4CCOCC4)c3C2=O)cc1C [compound 520, 6-[2-(4,5-Dimethyl-2-pyridyl)ethyl]-4-morpholino-7H-pyrrolo[3,4-b]pyridin-5-one] |
| 200 to 500 nM | < 100 µL/min/mg | < 100 µL/min/mg | Cc1ccnc(CCN2Cc3nccc(N4CCOCC4)c3C2=O)c1 [compound 521, 6-[2-(4-Methyl-2-pyridyl)ethyl]-4-morpholino-7H-pyrrolo[3,4-b]pyridin-5-one] |
| 100 to 200 nM | < 100 µL/min/mg | < 100 µL/min/mg | Cc1cccnc1CCN1Cc2nccc(N3CCOCC3)c2C1=O [compound 522, 6-[2-(3-Methyl-2-pyridyl)ethyl]-4-morpholino-7H-pyrrolo[3,4-b]pyridin-5-one] |
| 100 to 200 nM | > 220 µL/min/mg | 100 to 220 µL/min/mg | Cc1occc1-c1ccnc2c1C(=O)N(CCc1cn3ccccc3n1)C2 [compound 524, 6-(2-Imidazo[1,2-a]pyridin-2-ylethyl)-4-(2-methyl-3-furyl)-7H-pyrrolo[3,4-b]pyridin-5-one] |
| < 100 nM | 100 to 220 µL/min/mg | < 100 µL/min/mg | O=C1c2c(-c3ccoc3)ccnc2CN1CCc1cn2cc(F)ccc2n1 [compound 526, 6-[2-(6-Fluoroimidazo[1,2-a]pyridin-2-yl)ethyl]-4-(3-furyl)-7H-pyrrolo[3,4-b]pyridin-5-one] |
| < 100 nM | < 100 µL/min/mg | < 100 µL/min/mg | COc1ccnc2c1C(=O)N(CCc1ccc3ccccc3n1)C2 [compound 528, 4-Methoxy-6-(2-quinolin-2-yl-ethyl)-6,7-dihydro-pyrrolo[3,4-b]pyridin-5-one] |
| < 100 nM | < 100 µL/min/mg | < 100 µL/min/mg | CN(C)CCOc1ccc(-c2ccncc2)c2c1CN(CCc1ccc3ccccc3n1)C2=O [compound 529, 4-(2-Dimethylamino-ethoxy)-7-pyridin-4-yl-2-(2-quinolin-2-yl-ethyl)-2,3-dihydro-isoindol-1-one] |
| < 100 nM | 100 to 220 µL/min/mg | < 100 µL/min/mg | O=C1c2c(N3CCC(O)CC3)ccnc2CN1CCc1ccc2ccccc2n1 [compound 530, 4-(4-Hydroxy-piperidin-1-yl)-6-(2-quinolin-2-yl-ethyl)-6,7-dihydro-pyrrolo[3,4-b]pyridin-5-one trifluoroacetate] |
| < 100 nM | < 100 µL/min/mg | < 100 µL/min/mg | COC(=O)C1CN(Cc2cccc3c2C(=O)N(CCc2ccc4ccccc4n2)C3)C1 [compound 531, 1-[3-Oxo-2-(2-quinolin-2-yl-ethyl)-2,3-dihydro-1H-isoindol-4-ylmethyl]-azetidine-3-carboxylic acid methyl ester] |
| < 100 nM | < 100 µL/min/mg | < 100 µL/min/mg | O=C1c2c(-c3ccncc3F)ccnc2CN1CCc1cn2ccccc2n1 [compound 534, 4-(3-Fluoro-pyridin-4-yl)-6-(2-imidazo[1,2-a]pyridin-2-yl-ethyl)-6,7-dihydro-pyrrolo[3,4-b]pyridin-5-one] |
| < 100 nM | < 100 µL/min/mg | < 100 µL/min/mg | Cc1ccc2c(c1)nc(CCN1Cc3nccc(-c4cncnc4)c3C1=O)n2C [compound 535, 6-[2-(1,5-Dimethyl-1H-benzoimidazol-2-yl)-ethyl]-4-pyrimidin-5-yl-6,7-dihydro-pyrrolo[3,4-b]pyridin-5-one] |
| < 100 nM | < 100 µL/min/mg | 100 to 220 µL/min/mg | Cc1ccc2c(c1)nc(CCN1Cc3nccc(-c4ccncc4)c3C1=O)n2C [compound 536, 6-[2-(1,5-Dimethyl-1H-benzoimidazol-2-yl)-ethyl]-4-pyridin-4-yl-6,7-dihydro-pyrrolo[3,4-b]pyridin-5-one] |
| < 100 nM | 100 to 220 µL/min/mg | < 100 µL/min/mg | O=C1c2cccc(-c3cscn3)c2CN1CCc1cn2ccccc2n1 [compound 537, 2-(2-Imidazo[1,2-a]pyridin-2-ylethyl)-4-thiazol-4-yl-isoindolin-1-one] |
| < 100 nM | 100 to 220 µL/min/mg | < 100 µL/min/mg | O=C1c2c(-c3cn[nH]c3)ccnc2CN1CCc1nc2ccccc2s1 [compound 538, 6-[2-(1,3-Benzothiazol-2-yl)ethyl]-4-(1H-pyrazol-4-yl)-7H-pyrrolo[3,4-b]pyridin-5-one trifluoroacetate] |
